Measurements taken from patent US7629318B2, “Immunosuppressant compounds, methods and uses related thereto” (priority 2002, dated 2009).
“And” between values parts separate entries of the source, which are not always exact repeats. Identical values can stand only once. Like-named read-outs stand apart in the source and are kept apart here. Numbered stars: 1 amine (or outer) side, 2 acyl side, 3 side chain; on linkers, the order of the positions; unused ones are H or OH. Square brackets hold non-standard residues; d marks the D form. Peptide text beside a SMILES is read from it. * marks the point of attachment. ξ: configuration not given here. Gly(1-amidinopiperidin-4-yl) = N=C(N)N1CCC([C@H](N)C(=O)O)CC1; X1 = CC(C)c1oc([C@H](CO)N[*:1])nc1C(=O)[*:2]; Pro(3R-Ph) = O=C(O)[C@H]1NCC[C@@H]1c1ccccc1; Tic = O=C(O)[C@@H]1Cc2ccccc2CN1; Cha = N[C@@H](CC1CCCCC1)C(=O)O; NHPhenethyl = c1ccc(CCN*)cc1; NMe(benzyl) = CN(Cc1ccccc1)*; ξDisc = O=C(O)C1NCc2ccccc21; Nle = CCCC[C@H](N)C(=O)O; NHBn = c1ccc(CN*)cc1

Legend:
[1] = Stability of compounds in human blood plasma; type: in vitro ADME
Outline: (§1)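 Compounds at 5 μM final in rat, mouse or human plasma, incubated at 37 °C and sampled at 0, 6 and 24 h. Proteins precipitated with acetonitrile and the supernatant dried and reconstituted in 50% acetonitrile/0.1% TFA. PBS controls run for unstable compounds.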

[2] = target: T1, LG2 (DR1: DRA1*0101 DRB1*0101) cells (Homo sapiens, UniProt P01903+P01911, A100R/D57E/F55L/F60I/F76Y/I96L/L162R/M171V/P40L/Q125E/R42F/V115G/Y59C); assay: Competitive binding to MHC II proteins expressed on LG2 cells; type: cell-based; details: Cell binding IC50 (uM) LG2 (0101), LG2 (0101)
T1 construct: MHC II Proteins Expressed on PRIESS and LG2 Cells; endogenous in cells; host or cells: LG2 cells
Outline: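 LG2 or Priess cells incubated 4 h at 37° C, 6% CO2 in 1% FCS with 10-fold compound dilutions (series 16 nM-1615 μM) and biotinylated-detectable indicator peptide (16 μM solution added). Lysates captured 2 h at 4° C; bound peptide detected via europium-streptavidin time-resolved fluorescence (ex 340, em 613 nm).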

[3] = system: T-cell proliferation, DR14-LN; details: for Immunsupressive assays DR14-LN (Max) % Inhibition: maximal inhibition; for IC50: read-out: Immunsupressive assays DR14-LN (IC50)
[4] = target: Cathepsin B1 (EC 3.4.22.1 from bovine spleen) (Bos taurus, UniProt P07688); details: Cathepsin B, 4 h
[5] = Stability of compounds in rat blood plasma; type: in vitro ADME
Outline: as §1

[6] = Stability of compounds in mouse blood plasma; type: in vitro ADME
Outline: as §1

[7] = system: T-cell proliferation, lymph node cells of chimeric 0401-IE transgenic mice; details: for Immunsupressive assays DR4-LN (Max) % Inhibition: maximal inhibition; for immunosuppressive properties as measured by a T-cell activation assay: dose-response curves; for IC50: read-out: Immunsupressive assays DR4-LN (IC50); for Immunsupressive assays DR4-LN (Max) % Inhibition / IC50: DR4-LN
Outline: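 Antigen-primed lymph node cells (1.5×10^5/well) from mice lacking murine class II and carrying a chimeric human RA-associated class II transgene, cultured 3 days with ovalbumin at half-maximal dose plus compound (~0.1–200 uM) in serum-free HL-1. Proliferation read by 3H-thymidine incorporation over the final 16 h.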

Row | Compound | Stability (Arbitrary units) Human 6 h [1] [Arbitrary units] | Stability (Arbitrary units) Human 24 h [1] [Arbitrary units] | IC50 [2] | Immunsupressive assays DR14-LN (Max) % Inhibition [3] [%] | IC50 [3] [µM] | Stability (Arbitrary units) Cath B 4 h [4] | Stability (Arbitrary units) Rat 6 h [5] [Arbitrary units] | Stability (Arbitrary units) Rat 24 h [5] [Arbitrary units] | Stability (Arbitrary units) Mouse 24 h [6] [Arbitrary units] | Immunsupressive assays DR4-LN (Max) % Inhibition [7] [%] | immunosuppressive properties as measured by a T-cell activation assay [7] | IC50 [7] | Stability (Arbitrary units) Rat 24 h ([5]; rat plasma, 24 h) [Arbitrary units] | Stability (Arbitrary units) Mouse 6 h [6] [Arbitrary units] | stability (arbitrary units) in rat plasma ([5]; after 24 hours, compared to the Arg-containing equivalent) | immunosuppressive properties as measured by a T-cell activation assay, versus Arg equivalent ([7]; dose-response curve, compared to the Arg-containing peptide)
1 | CCCC[C@H](NC(=O)[C@@H]1Cc2ccccc2CN1C(=O)[C@@H](NC(=O)[C@H](CC1CCCCC1)NC(C)=O)C1CCN(C(=N)N)CC1)C(=O)N(C)Cc1ccccc1 [Compound P74, Ac-Cha-Gpg-Tic-Nle-N(Me)Bn] (Ac-[Cha][Gly(1-amidinopiperidin-4-yl)][Tic][Nle]-{NMe(benzyl)}) | 114 | 125 | 6.1 µM | 97 | 14 | 105 Arbitrary units | 91 | 71 | 97 | 102 | immunosuppressive properties | 16 µM and 18 µM |  |  |  | 
2 | CSCC[C@H](NC(=O)C1c2ccccc2CN1C(=O)[C@@H](NC(=O)[C@H](CC1CCCCC1)NC(C)=O)C1CCN(C(=N)N)CC1)C(=O)N1CC[C@H](c2ccccc2)[C@H]1C(=O)N[C@@H](CO)c1nc(C(=O)N(C)C)c(C(C)C)o1 (stereo partly drawn) [Compound P41-1, Ac-Cha-Gpg-Disc-Met-βPhPro-[S(oxaz)L]-NMe2] (Ac-[Cha][Gly(1-amidinopiperidin-4-yl)][ξDisc]M[Pro(3R-Ph)][X1]-NMe2) | 59 | 115 | 3.8 µM | 98 | 25 | 104 Arbitrary units | 91 |  | 111 | 96 |  | 49 µM | 103 | 100 |  | 
3 | CCCC[C@H](NC(=O)[C@@H]1Cc2ccccc2CN1C(=O)[C@@H](NC(=O)[C@H](CC1CCCCC1)NC(C)=O)C1CCN(C(=N)N)CC1)C(=O)NCc1ccccc1 [Compound P68, Ac-Cha-Gpg-Tic-Nle-N(H)Bn] (Ac-[Cha][Gly(1-amidinopiperidin-4-yl)][Tic][Nle]-NHBn) | 85 | 39 | 7.2 µM | 105 | 17 | 52 Arbitrary units | 7 | 0 | 13 | 102 |  | 18 µM |  | 49 |  | 
4 | CCCC[C@H](NC(=O)[C@@H]1Cc2ccccc2CN1C(=O)[C@@H](NC(=O)[C@H](CC1CCCCC1)NC(C)=O)C1CCN(C(=N)N)CC1)C(=O)NCCc1ccccc1 [Compound P69, Ac-Cha-Gpg-Tic-Nle-N(H)CH2CH2Ph] (Ac-[Cha][Gly(1-amidinopiperidin-4-yl)][Tic][Nle]-NHPhenethyl) | 105 | 93 | 6.2 µM and 8.2 µM | 107 | 23 | 92 Arbitrary units | 41 | 42 | 85 | 101 | immunosuppressive properties | 19 µM |  | 115 | improved stability | 
5 | CSCC[C@H](NC(=O)[C@@H]1Cc2ccccc2CN1C(=O)[C@@H](NC(=O)[C@H](CC1CCCCC1)NC(C)=O)C1CCN(C(=N)N)CC1)C(=O)N1CC[C@H](c2ccccc2)[C@H]1C(=O)N[C@@H](CO)c1nc(C(=O)N(C)C)c(C(C)C)o1 [Compound P60, Ac-Cha-Gpg-Tic-Met-βPhPro-[S(oxaz)L]-NMe2] (Ac-[Cha][Gly(1-amidinopiperidin-4-yl)][Tic]M[Pro(3R-Ph)][X1]-NMe2) |  | 120 | 1.5 µM | 98 | 41 | 88 Arbitrary units and 98 Arbitrary units | 134 | 124 | 95 | 97 |  | 29 µM |  | 111 |  | 
6 | CCCC[C@H](NC(=O)[C@@H]1Cc2ccccc2CN1C(=O)[C@@H](NC(=O)[C@H](CC1CCCCC1)NC(C)=O)C1CCN(C(=N)N)CC1)C(=O)N1CC[C@H](c2ccccc2)[C@H]1C(=O)N[C@@H](CO)c1nc(C(=O)N(C)C)c(C(C)C)o1 [Compound P53, Ac-Cha-Gpg-Tic-Nle-βPhPro-[S(oxaz)L]-NMe2] (Ac-[Cha][Gly(1-amidinopiperidin-4-yl)][Tic][Nle][Pro(3R-Ph)][X1]-NMe2) | 110 | 122 | 3.5 µM | 101 | 32 | 97 Arbitrary units | 114 | 108 | 115 | 100 | immunosuppressive properties | 40 µM |  | 117 |  | improved immunosuppressive properties
7 | CCCC[C@H](NC(=O)C1c2ccccc2CN1C(=O)[C@@H](NC(=O)[C@H](CC1CCCCC1)NC(C)=O)C1CCN(C(=N)N)CC1)C(=O)N1CC[C@H](c2ccccc2)[C@H]1C(=O)N[C@@H](CO)c1nc(C(=O)N(C)C)c(C(C)C)o1 (stereo partly drawn) [Compound P81-1] (Ac-[Cha][Gly(1-amidinopiperidin-4-yl)][ξDisc][Nle][Pro(3R-Ph)][X1]-NMe2) | 151 | 162 | 5 µM |  | 43 | 105 Arbitrary units | 151 | 112 | 84 |  |  | 63 µM |  | 87 |  | 
8 | CCCC[C@H](NC(=O)C1c2ccccc2CN1C(=O)[C@H](CCCNC(=N)N)NC(=O)[C@H](CC1CCCCC1)NC(C)=O)C(=O)N(C)Cc1ccccc1 (stereo partly drawn) [Compound P72-1, Ac-Cha-Arg-Disc-Nle-N(Me)Bn] (Ac-[Cha]R[ξDisc][Nle]-{NMe(benzyl)}) | 99 | 99 | 12 µM | 95 | 29 | 98 Arbitrary units | 80 | 67 | 75 | 103 |  | 31 µM |  | 97 |  | 
